Data: ChEMBL document CHEMBL4020778, “Recent progress towards clinically relevant ATP-competitive Akt inhibitors” (Bioorg Med Chem Lett, 2017)
pIC50: −log10 of the molar value.

Assays:
[1] = species on record: Homo sapiens; experiment: Inhibition of PKA (unknown origin) at 10 uM relative to control
[2] = target: Rho-associated protein kinase 2 (Rattus norvegicus) (UniProt Q62868); experiment: Inhibition of rat ROCK2 (2 to 543 residues) at 10 uM using substrate after 5 mins in presence of [33P]ATP by scintillation counting method relative to control
[3] = target: Glycogen synthase kinase-3 beta (Homo sapiens) (UniProt P49841); experiment: Inhibition of GSK3beta phosphorylation at ser9 in human U87MG cells at >1 uM by Western blot analysis relative to control; assay type: cell-based
Sequence of Glycogen synthase kinase-3 beta (Homo sapiens) (P49841 whole entry, looked up, the tested form may be a part): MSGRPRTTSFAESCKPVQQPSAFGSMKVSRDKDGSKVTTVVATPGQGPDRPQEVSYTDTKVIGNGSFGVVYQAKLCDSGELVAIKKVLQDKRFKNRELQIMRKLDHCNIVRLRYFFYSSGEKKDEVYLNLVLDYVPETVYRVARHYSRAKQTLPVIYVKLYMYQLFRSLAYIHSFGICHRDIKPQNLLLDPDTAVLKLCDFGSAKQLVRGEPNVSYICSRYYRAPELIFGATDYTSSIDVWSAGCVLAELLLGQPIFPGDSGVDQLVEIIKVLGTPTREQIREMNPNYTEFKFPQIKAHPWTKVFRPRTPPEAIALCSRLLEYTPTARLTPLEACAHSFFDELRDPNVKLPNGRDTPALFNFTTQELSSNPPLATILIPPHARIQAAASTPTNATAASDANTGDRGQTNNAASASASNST

[4] = target: cAMP-dependent protein kinase catalytic subunit alpha (Homo sapiens, UniProt P17612); experiment: Inhibition of recombinant human His-tagged PKA catalytic domain (1 to 351 residues) expressed in Escherichia coli using Ser/Thr 7 as substrate after 1 hr by FRET-based Z'-Lyte assay
[5] = tested on: BT-474; experiment: Anti-tumor activity against human BT474 cells xenografted in CrTac:Ncr-Fox1nu mouse assessed as reduction in tumor weight at 40 mg/kg, po administered once daily for 2 days measured after 26 days relative to control; assay type: functional
[6] = target: Ribosomal protein S6 kinase alpha-1/alpha-3 (Homo sapiens) (UniProt P51812+Q15418); experiment: Inhibition of RSK1/2 (unknown origin) at 10 uM relative to control; assay type: protein assay
Sequence of Ribosomal protein S6 kinase alpha-1/alpha-3 (Homo sapiens) (P51812 whole entry, looked up, the tested form may be a part): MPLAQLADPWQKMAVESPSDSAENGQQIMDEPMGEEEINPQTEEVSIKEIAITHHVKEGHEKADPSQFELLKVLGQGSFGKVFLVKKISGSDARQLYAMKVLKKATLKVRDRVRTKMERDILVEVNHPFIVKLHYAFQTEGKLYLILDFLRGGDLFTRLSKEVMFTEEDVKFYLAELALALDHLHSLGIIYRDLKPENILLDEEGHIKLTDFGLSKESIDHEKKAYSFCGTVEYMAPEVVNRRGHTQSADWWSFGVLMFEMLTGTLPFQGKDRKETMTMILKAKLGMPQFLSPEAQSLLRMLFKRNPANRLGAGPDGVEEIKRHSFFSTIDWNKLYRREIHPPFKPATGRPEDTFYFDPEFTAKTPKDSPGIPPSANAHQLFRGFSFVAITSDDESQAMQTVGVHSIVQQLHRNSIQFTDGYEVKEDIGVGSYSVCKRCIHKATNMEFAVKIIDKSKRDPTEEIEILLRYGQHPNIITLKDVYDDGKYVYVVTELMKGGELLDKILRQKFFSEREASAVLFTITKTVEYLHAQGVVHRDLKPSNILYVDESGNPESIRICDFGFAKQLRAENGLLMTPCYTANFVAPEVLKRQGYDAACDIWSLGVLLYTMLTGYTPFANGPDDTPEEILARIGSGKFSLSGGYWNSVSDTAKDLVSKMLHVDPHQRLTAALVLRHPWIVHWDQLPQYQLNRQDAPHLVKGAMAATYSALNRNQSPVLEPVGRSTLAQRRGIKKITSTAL
Sequence of Ribosomal protein S6 kinase alpha-1/alpha-3 (Homo sapiens) (Q15418 whole entry, looked up, the tested form may be a part): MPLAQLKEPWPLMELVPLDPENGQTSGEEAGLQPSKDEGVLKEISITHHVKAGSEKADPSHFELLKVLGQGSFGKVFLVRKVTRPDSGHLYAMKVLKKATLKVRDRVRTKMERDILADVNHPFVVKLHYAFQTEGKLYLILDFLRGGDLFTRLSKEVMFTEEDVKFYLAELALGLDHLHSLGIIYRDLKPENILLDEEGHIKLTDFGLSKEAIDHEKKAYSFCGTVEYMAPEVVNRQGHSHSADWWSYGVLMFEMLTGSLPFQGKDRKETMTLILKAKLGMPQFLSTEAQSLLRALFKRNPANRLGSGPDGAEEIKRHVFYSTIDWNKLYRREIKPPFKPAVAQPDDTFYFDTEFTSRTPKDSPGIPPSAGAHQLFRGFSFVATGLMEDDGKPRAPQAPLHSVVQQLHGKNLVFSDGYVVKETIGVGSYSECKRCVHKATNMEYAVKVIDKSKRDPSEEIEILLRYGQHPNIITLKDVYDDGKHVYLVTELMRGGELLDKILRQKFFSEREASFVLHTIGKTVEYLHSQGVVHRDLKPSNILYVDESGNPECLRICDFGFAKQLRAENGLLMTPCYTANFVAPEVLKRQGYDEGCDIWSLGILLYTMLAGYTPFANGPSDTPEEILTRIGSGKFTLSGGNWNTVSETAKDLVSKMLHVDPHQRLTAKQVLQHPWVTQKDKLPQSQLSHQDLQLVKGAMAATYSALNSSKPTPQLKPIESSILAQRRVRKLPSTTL

[7] = tested on: T1, Serine/threonine-protein kinase Sgk1 (Homo sapiens), O00141 [S422D]; experiment: Inhibition of human SGK1 S422D mutant (60 to 431 residues) at 10 uM using substrate after 5 mins in presence of [33P]ATP by scintillation counting method relative to control
T1 sequence (whole entry): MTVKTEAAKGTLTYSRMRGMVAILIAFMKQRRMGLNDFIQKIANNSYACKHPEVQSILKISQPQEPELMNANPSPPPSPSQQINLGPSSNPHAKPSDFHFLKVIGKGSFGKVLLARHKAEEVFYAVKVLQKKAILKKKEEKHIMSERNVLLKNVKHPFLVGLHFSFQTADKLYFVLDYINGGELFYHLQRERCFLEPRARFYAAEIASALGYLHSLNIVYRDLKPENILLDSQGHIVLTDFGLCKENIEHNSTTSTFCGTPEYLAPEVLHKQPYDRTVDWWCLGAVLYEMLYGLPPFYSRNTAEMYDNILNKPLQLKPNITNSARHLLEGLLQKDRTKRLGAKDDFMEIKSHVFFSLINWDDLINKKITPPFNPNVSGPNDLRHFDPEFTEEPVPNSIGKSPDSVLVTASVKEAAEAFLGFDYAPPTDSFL

[8] = species on record: Homo sapiens; experiment: Inhibition of MSK (unknown origin) at 10 uM relative to control
[9] = Ratio of drug level in tumor to plasma in CrTac:Ncr-Fox1nu mouse at 40 mg/kg, po administered once daily for 2 days measured after 24 hrs post last dose; assay type: ADME, organism-based
[10] = tested on: Ribosomal protein S6 kinase beta-1 (Homo sapiens), P23443 [T412E]; experiment: Inhibition of human p70S6K T412E mutant (1 to 421 residues) at 10 uM using substrate after 5 mins in presence of [33P]ATP by scintillation counting method relative to control
Sequence of Ribosomal protein S6 kinase beta-1 (Homo sapiens), P23443 [T412E] (P23443 whole entry T412E, looked up, the tested form may be a part): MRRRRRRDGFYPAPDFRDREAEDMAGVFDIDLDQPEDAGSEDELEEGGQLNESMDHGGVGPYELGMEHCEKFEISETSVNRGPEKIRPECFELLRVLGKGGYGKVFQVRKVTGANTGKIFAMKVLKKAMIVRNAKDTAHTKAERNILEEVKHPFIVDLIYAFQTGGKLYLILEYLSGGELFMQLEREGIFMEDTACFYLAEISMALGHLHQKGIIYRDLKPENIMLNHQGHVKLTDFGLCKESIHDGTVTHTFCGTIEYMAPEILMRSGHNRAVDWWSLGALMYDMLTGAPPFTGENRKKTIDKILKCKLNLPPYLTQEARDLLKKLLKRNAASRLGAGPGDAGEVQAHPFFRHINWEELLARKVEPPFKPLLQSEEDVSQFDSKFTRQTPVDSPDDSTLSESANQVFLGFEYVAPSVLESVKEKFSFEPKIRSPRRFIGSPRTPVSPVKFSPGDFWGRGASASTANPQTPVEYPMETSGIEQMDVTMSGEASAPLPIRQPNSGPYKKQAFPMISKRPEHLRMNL

[11] = Half life in Balb/c mouse at 5 mg/kg, iv by LC-MS/MS analysis; assay type: ADME, organism-based; settings: in vivo
[12] = target: Rho-associated protein kinase 1 (Homo sapiens) (UniProt Q13464); experiment: Inhibition of ROCK1 (unknown origin) at 10 uM relative to control
Sequence of Rho-associated protein kinase 1 (Homo sapiens) (Q13464 2-1354 limits assumed): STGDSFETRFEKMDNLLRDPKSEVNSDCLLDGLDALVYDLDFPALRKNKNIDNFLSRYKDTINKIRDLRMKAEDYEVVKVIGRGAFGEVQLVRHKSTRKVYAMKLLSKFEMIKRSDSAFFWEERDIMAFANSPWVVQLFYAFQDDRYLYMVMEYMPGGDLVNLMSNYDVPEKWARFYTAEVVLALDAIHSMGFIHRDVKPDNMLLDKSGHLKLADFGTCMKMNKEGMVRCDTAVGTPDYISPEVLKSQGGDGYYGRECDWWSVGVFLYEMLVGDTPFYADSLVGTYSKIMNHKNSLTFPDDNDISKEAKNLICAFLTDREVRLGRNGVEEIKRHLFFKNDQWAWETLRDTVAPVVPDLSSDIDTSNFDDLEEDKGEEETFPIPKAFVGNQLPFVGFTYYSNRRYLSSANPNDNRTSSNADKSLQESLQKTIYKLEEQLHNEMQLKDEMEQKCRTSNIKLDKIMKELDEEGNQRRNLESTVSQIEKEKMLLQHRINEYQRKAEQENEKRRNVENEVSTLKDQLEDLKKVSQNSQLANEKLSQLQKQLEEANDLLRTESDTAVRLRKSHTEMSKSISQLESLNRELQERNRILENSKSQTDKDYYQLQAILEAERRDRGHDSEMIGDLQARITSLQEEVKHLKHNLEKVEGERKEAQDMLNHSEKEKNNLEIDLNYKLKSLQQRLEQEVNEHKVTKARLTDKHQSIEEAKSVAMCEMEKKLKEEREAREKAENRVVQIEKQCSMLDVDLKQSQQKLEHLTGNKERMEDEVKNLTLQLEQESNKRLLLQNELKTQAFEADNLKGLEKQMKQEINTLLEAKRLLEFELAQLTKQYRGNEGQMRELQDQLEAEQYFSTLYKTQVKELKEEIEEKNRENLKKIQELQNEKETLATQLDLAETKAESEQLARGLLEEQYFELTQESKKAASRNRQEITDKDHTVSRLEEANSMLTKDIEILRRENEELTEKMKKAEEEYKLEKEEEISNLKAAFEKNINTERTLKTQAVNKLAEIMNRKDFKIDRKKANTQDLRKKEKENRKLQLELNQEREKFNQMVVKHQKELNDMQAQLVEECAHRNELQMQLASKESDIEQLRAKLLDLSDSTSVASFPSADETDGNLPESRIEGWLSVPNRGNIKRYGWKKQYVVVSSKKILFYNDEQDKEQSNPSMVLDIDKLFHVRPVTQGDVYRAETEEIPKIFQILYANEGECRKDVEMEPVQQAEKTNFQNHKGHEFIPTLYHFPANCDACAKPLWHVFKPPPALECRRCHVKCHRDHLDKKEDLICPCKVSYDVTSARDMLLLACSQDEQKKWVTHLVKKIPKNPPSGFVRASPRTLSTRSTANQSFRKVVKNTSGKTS

- inhibition [1]: > 80%
- inhibition [2]: > 80%
- inhibition [3]: 50%
- pIC50 [4]: > 8.00
- inhibition [6]: > 80%
- inhibition [7]: > 80%
- inhibition [8]: > 80%
- Kp at 24 h [9]: 13.6
- inhibition [10]: > 80%
- half-life [11]: 2.8 h
- inhibition [12]: > 80%
SMILES: NC[C@@](O)(c1ccc(Cl)cc1)c1ccc(-c2cn[nH]c2)cc1 [AT-13148]
- T/C [5]: 36%
